The results in this text go back to patent US4874780A, “Anticancer compounds” (Norsk Hydro a.s., priority 1987, dated 1989).

The nature of data set [1]: Solubility in water, pH of solution and stability of benzylidene ascorbic acid compounds. Type of data set: physicochemical. The conditions noted are these: for Stability (in words): free acid compared with mono-basic salt. From the text:
The structural formula is shown below. The structure has been confirmed by IR and NMR. […] The pH of the solution is 6.6. [drawing 8] The beneficial properties of the drug composition according to the present invention are illustrated below in connection with a series of experiments which have been performed.

Data set [2] concerns NHIK 3025 cells. Put plainly: Cell survival (colony formation) after 24 hr treatment. Type of data set: cell-based. As to conditions: Homo sapiens, NHIK3025, 24 h, read-out: Fraction of cells surviving 24 hr treatment. The text has this:
(§1) Human cells of the established line NHIK 3025, originating from a cervical carcinoma in situ (Nordbye, K., and Oftebro, R. Exp. Cell Res., 58: 458, 1969), Oftebro, R., and Nordbye, K., Exp. Cell Res., 58: 459-460, 1969) were cultivated in Medium E2a (Puck, T.T. et al., J. Exp. Med., 106:145-165, 1957) supplemented with 20% human (prepared at the laboratory) and 10% horse serum (Grand Island Biological Co.). The cells are routinely grown as monolayers in tissue culture flasks.
(§2) The cells were kept in continuous exponential growth by frequent reculturing, i.e., every second and third day, and synchronized cell populations with a high degree of synchrony were obtained by repeated selection of mitotic cells (Pettersen, E. O. et al, Cell Tissue Kinet., 10: 511-522, 1977). During the synchronization procedure, the cells were kept in Medium E2a, and the whole experiment took place in a walk-in incubator at 37° C. Under growth conditions as used here, the NHIK 3025 cells have a medium cell-cycle time of ~18 hr, with medium G1, S1 and G2 durations of ~7, ~8, and ~2.5 hr, respectively.
For measurement of cell survival, appropriate numbers of cells were seeded in plastic Petri dishes (.phi.=5 cm). The number of cells seeded into each dish was adjusted such that the number of surviving cells would be approximately 150 per dish. While exponentially growing (asynchronous) cells were trypsinized before seeding, synchronized cells were seeded immediately after selection. After about 2 hr, the cells had attached to the bottom of the dishes, and the treatment was started by replacing the medium with medium containing the appropriate drug concentration. After the desired time of treatment, the drug-containing medium was removed, and fresh medium was added. The dishes were rinsed once with the same medium as was to be added on addition or removal of drug. After 10 to 12 days at 37° C. in a CO2 incubator, the cells were fixed in ethanol and stained with methylene blue before the colonies were counted.
The cytotoxic effect of benzaldehyde and of deuterobenzaldehyde-d1 was tested on asynchronous, exponentially growing NHIK 3025 cells by counting the number of cells able to form colonies after 24 hr treatment in Petri dishes. In Table 1 the results represent 2 different, independent experiments where the numbers give the mean fraction of surviving cells from 10 parallel dishes (± standard error).
Fraction of cells surviving 24 hr treatment with benzaldehyde or deuterobenzaldehyde - d1 in Petri dishes. (The values represent the mean±standard error from 10 different dishes.)

In data set [3] the test system is NHIK 3025 cells. The data set is described as follows: Protein synthesis rate ((3H)valine incorporation). Type of data set: cell-based, human. As to conditions: 3.2 mM, 4 hr treatment, Table 2, control 6.8 ± 0.9.
Source text: as §1, §2
The rate of protein synthesis was calculated as described previously (Ronning, O. W. et al., J. Cell Physiol., 107: 47-57, 1981). Briefly, cellular protein was labeled to saturation during a 2-day preincubation with (^14 C)valine of constant specific radioactivity (0.5 Ci/mol) prior to the experiment. This was achieved by using a high concentration of valine so that the dilution of (^14 C)valine by intracellular valine and by proteolytically generated valine will be negligible (Ronning, O. W., et al. Exp. Cell Res. 123: 63-72, 1979), thus keeping the specific radioactivity at a constant level. The rate of protein synthesis was calculated from the incorporation of (3H)valine of constant specific activity. The incorporation measurements were related to the total of (^14 C) radioactivity in protein at the beginning of the respective measurement periods and expressed as the percentage per hr (Ronning, O. W. et al, J. Cell, Physiol. 107: 47-57, 1981).
[…] The last measurements were done to test the reversibility of the drugs. Drug concentration: 3.2 mM.

Data set [4] concerns NHIK 3025 cells. Put plainly: Duration of cell cycle-time of synchronized cells. Type of data set: cell-based, human. As to conditions: 8 hr treatment.
Source text: as §1, §2
(§3) For detection of the drug effects on cell-cycle kinetics, the same methods were used as described previously (Lindmo, T., and Pettersen, E. O., Cell Tissue Kinet., 12: 43-57, 1979), (Pettersen, E. O. et al, Eur. J. Cancer Clin. Oncol., 19: 507-514; 1983), (Ronning, O.W. et al., J. Cell. Physiol., 109: 411-419, 1981). Briefly, the selected mitotic cells were seeded into 8 tissue culture flasks (25 sq cm) 5000 cells per flask. The cells divided within 1 hr and attached as doublets to the bottom of the flasks. […] Analyses of durations of mitosis were performed from these observations (Table 4).
This is shown by the data in Table 3, where we have used synchronized cells treated over an 8 hr period starting 2 hr after mitotic selection, i.e. when the cells were in early Gl.

Data set [5] relates to NHIK 3025 cells. Put plainly: Duration of mitosis of synchronized cells. Type of data set: cell-based, human. As to conditions: 3.2 mM during mitosis.
Source text: as §1, §2, §3
This effect is probably directly related to the aldehyde group (Pettersen et al. Cancer Res. 45: 2085-2091, 1985). If the deuterated aldehyde group induces different biological effects from the undeuterated one it is therefore good reason to expect this to be expressed as a difference in effect on cells in mitosis. In Table 4 results are shown on prolongation of mitosis of synchronized cells treated with benzaldehyde or deuterobenzaldehyde-d1 during mitosis. The numbers in the table represent the percentage of the cells having a duration of mitosis below 1 hr (which is normal for untreated cells) or above the number of hours indicated on top of each column.

Where a name gives a salt, the structure may show the parent alone.

Consider `[2H]C1(c2ccccc2)OC[C@@H]([C@H]2OC(=O)C(O)=C2O)O1` (stereo partly drawn) [mono-sodium salt of deutero 5,6-O-benzylidene-L-ascorbic aci] [mono-sodium salt of deutero 5,6-O-benzylidene-L-ascorbic acid], for which the “pH of the solution” value in data set [1] (aqueous solution of mono-sodium salt) is 6.6. Besides, in data set [1], the “Stability (in words)” value is “much more stable”. Moreover, the Solubility in water entry in data set [1] (water) is given as “readily soluble in water”.
On to `[2H]C(=O)c1ccccc1` [Deuterobenzaldehyde-d1], for which the viability at 3200 µM in data set [2] was found to be 68 ± 14%. In addition, the viability at 12800 µM in data set [2] came out at 0.56 ± 0.2%. Moreover, the Protein synthesis in data set [3] (pulse 0-1, during treatment) is 3.6 ± 0.3 %/hr; in data set [3] (pulse 4-5, after treatment) it was 4.7 ± 0.3 %/hr; in data set [3] (pulse 5-6, after treatment) it was 5.8 ± 0.3 %/hr. Moreover, the Prolongation in data set [4] (2 mM, versus control 1) is given as 15.2%; in data set [4] (2.5 mM, versus control 2), 108.3%. The “Duration of the part of the cell cycle starting 2 hr after selection” value is listed as 19.0 in data set [4] (2 mM, control 1 16.5) and 35.0 in data set [4] (2.5 mM, control 2 16.8). Moreover, the “Percentage of cells with duration of mitosis >4 h” value in data set [5] was 70%. Besides, the “Percentage of cells with duration of mitosis >5 h” value in data set [5] stood at 69%. Also, in data set [5], the “Percentage of cells with duration of mitosis >6 h” value was 64%. In data set [5] (control 2%), the “Percentage of cells with duration of mitosis >3 h” value worked out at 74%. In data set [5] (control 4%), the “Percentage of cells with duration of mitosis >2 h” value was 81%. In data set [5] (control 17%), the “Percentage of cells with duration of mitosis >1 h” value was 87%. Further, the “Percentage of cells with duration of mitosis <1 h” value in data set [5] (control 83%) is 13%.
`[2H]C1(c2ccccc2)OC[C@@H]([C@H]2OC(=O)C(O)=C2O)O1` (stereo partly drawn) [deutero 5,6-O-benzylidene ascorbic acid, deutero 5,6-O-benzylidene-L-ascorbic acid]: the “Stability (in words)” value in data set [1] is given as “instability”.
